According to patent publication US7759369B2, “Pyridine compounds for the treatment of prostaglandin mediated diseases” (Glaxo Group Limited, priority 2004, dated 2010):
Counter-ions that a name gives are not always drawn.

Columns and labels:
Type in all cases: cell-based
TP receptor = biological target: T1, TP receptor (Homo sapiens, UniProt P21731); assay: human TP calcium mobilisation assay (CHO-K1 cells, U46619, FLIPR); conditions: free bases or sodium salts; read-out: functional pKi, human TP calcium mobilisation assay (converted)
T1 construct: expressed in transfected cells; host or cells: CHO-K1
T1 sequence (P21731 1-343): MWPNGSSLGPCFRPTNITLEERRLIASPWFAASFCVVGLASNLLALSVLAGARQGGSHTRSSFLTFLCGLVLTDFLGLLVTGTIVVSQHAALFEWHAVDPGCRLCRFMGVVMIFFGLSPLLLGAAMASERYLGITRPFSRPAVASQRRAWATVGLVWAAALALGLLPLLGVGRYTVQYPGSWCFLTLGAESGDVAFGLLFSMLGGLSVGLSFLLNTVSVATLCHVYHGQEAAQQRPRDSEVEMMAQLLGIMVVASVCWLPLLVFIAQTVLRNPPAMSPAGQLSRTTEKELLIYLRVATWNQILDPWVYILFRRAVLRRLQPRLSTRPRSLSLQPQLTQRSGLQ
Protocol: To determine if a compound has agonist or antagonist activity at the TP receptor a functional calcium mobilisation assay may be performed. Briefly, the antagonist properties of compounds are assessed by their ability to inhibit the mobilisation of intracellular calcium ([Ca^2+]i) in response to activation of TP receptors by the stable TXA2 mimetic U46619 (9,11-dideoxy-11α,9α-epoxy-methanoprostaglandin F2 α; commercially available from e.g Sigma-Aldrich). Increasing concentrations of antagonist reduce the amount of calcium that a given concentration of U46619 can mobilise. The net effect is to displace the U46619 concentration-effect curve. The amount of calcium produced is assessed using a calcium-sensitive fluorescent dye such as Fluo-4, AM and a suitable instrument such as a Fluorimetric Imaging Plate Reader (FLIPR). Increasing amounts of [Ca^2+]i produced by receptor activation increase the amount of fluorescence produced by the dye and give rise to an increasing signal. The signal may be detected using the FLIPR instrument and the data generated may be analysed with suitable curve-fitting software. The agonist activity of the compounds are determined by their ability to cause an increase in intracellular mobilisation in the absence of U46619.
(§1) The human TP calcium mobilisation assay utilises Chinese hamster ovary-K1 (CHO-K1) cells into which a stable (pCIN; BioTechniques 20 (1996): 102-110) vector containing TP cDNA has previously been transfected. Cells are cultured in suitable flasks containing culture medium such as DMEM:F-12 supplemented with 10% v/v foetal calf serum, 2 mM L-glutamine, 0.25 mg/ml geneticin, 100 μM flurbiprofen and 10 μg/ml puromycin.
(§2) For assay, cells are harvested using a proprietary reagent that dislodges cells such as Versene. Cells are re-suspended in a suitable quantity of fresh culture media for introduction into a 96-well plate. Following incubation for 24 hours at 37° C. the culture media is replaced with a medium containing Fluo-4 and the detergent pluronic acid, and a further incubation takes place. Concentrations of compounds are then added to the plate in order to construct concentration-effect curves. This may be performed on the FLIPR in order to assess the agonist properties of the compounds. Concentrations of U46619 are then added to the plate in order to assess the antagonist properties of the compounds.
The data so generated may be analysed by means of a computerised curve-fitting routine. The concentration of compound that elicits a half-maximal inhibition of the calcium mobilisation induced by U46619 (plC50) may then be estimated, and the percentage activation caused by the compounds directly can be used to determine if there is any agonism present.

EP3 receptors = biological target: T2, EP3 receptors (Homo sapiens, UniProt P43115); assay: human EP3 calcium mobilisation assay (CHO-K1 cells, PGE2, FLIPR); conditions: free bases or sodium salts; averages of a number of experiments; read-out: functional pKi value, human EP3 calcium mobilisation assay (converted)
T2 construct: expressed in transfected cells; host or cells: CHO-K1
T2 sequence (P43115 1-390): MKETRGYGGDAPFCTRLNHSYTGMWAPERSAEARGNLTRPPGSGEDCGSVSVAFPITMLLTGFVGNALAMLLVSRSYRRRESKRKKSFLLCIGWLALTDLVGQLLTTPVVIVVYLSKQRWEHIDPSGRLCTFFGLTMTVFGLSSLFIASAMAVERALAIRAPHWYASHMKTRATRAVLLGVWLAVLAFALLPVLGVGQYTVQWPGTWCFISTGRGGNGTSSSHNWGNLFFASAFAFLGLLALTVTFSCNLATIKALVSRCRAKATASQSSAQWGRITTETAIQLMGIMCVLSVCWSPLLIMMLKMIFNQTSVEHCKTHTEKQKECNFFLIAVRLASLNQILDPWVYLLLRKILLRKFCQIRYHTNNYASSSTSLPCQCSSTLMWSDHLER
Protocol: (§3) Briefly, the antagonist properties of compounds are assessed by their ability to inhibit the mobilisation of intracellular calcium ([Ca^2+]i) in response to activation of EP1 or EP3 receptors by the natural agonist hormone prostaglandin E2 (PGE2). Increasing concentrations of antagonist reduce the amount of calcium that a given concentration of PGE2 can mobilise. The net effect is to displace the PGE2 concentration-effect curve to higher concentrations of PGE2. The amount of calcium produced is assessed using a calcium-sensitive fluorescent dye such as Fluo-4, AM and a suitable instrument such as a Fluorimetric Imaging Plate Reader (FLIPR). Increasing amounts of [Ca^2+]i produced by receptor activation increase the amount of fluorescence produced by the dye and give rise to an increasing signal. The signal may be detected using the FLIPR instrument and the data generated may be analysed with suitable curve-fitting software.
as §1, with “human EP1 or EP3” for “human TP”, “assay (hereafter referred to as ‘the calcium assay’)” for “assay”, “containing either EP1 or EP3” for “containing TP”, “10 µg/ml” for “10 μg/ml”
as §2, with “384-well” for “96-well”, “PGE2” for “U46619”
(§4) The data so generated may be analysed by means of a computerised curve-fitting routine. The concentration of compound that elicits a half-maximal inhibition of the calcium mobilisation induced by PGE2 (pIC50) may then be estimated.

EP1 receptors = biological target: T3, EP1 receptors (Homo sapiens, UniProt P34995); assay: human EP1 calcium mobilisation assay (CHO-K1 cells, PGE2, FLIPR); set-up: expressed in transfected cells; host or cells: CHO-K1; conditions: free bases or sodium salts; averages of a number of experiments; read-out: functional pKi value, human EP1 calcium mobilisation assay (converted)
T3 sequence (P34995 1-402): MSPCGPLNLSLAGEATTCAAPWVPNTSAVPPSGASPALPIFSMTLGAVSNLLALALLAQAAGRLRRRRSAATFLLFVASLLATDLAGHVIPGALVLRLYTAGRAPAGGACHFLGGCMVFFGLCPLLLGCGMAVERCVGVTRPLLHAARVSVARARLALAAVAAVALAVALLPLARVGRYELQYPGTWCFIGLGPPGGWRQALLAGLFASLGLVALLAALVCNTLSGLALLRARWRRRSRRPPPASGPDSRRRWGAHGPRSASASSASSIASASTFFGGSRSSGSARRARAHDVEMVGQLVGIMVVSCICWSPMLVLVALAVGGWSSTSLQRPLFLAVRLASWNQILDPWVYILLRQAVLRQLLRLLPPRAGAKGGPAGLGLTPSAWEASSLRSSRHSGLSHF
Protocol: as §3
as §1, with “human EP1 or EP3” for “human TP”, “assay (hereafter referred to as ‘the calcium assay’)” for “assay”, “containing either EP1 or EP3” for “containing TP”, “10 µg/ml” for “10 μg/ml”
as §2, with “384-well” for “96-well”, “PGE2” for “U46619”
as §4

Question: How did the Ki (TP receptor) turn out when `O=C(O)c1cccc(Cc2cc(Cl)ccc2OCc2ccccc2)n1` [Example 1, 6-({5-Chloro-2-[(phenylmethyl)oxy]phenyl}methyl)-2-pyridinecarboxylic acid] was run?
Answer: The Ki was > 1000 nM.

Question: How did the Ki (EP3 receptors) turn out when `C=C(C)COc1ccc(Cl)cc1Cc1cccc(C(=O)O)n1` [Example 2, 6-({5-Chloro-2-[(2-methyl-2-propen-1-yl)oxy]phenyl}methyl)-2-pyridinecarboxylic acid] was run?
Answer: The Ki was > 10000 nM.

Question: What about the Ki (EP1 receptors) of the same compound?
Answer: Its Ki is ≤ 31.6 nM.

Question: For `O=C(O)c1cccc(Cc2cc(Cl)ccc2OCc2ccc(F)cc2)n1` [Example 5, sodium 6-[(5-chloro-2-{[(4-fluorophenyl)methyl]oxy}phenyl)methyl]-2-pyridinecarboxylate], which Ki (TP receptor) is on record?
Answer: Its Ki is < 1000 nM.

Question: And the Ki (EP1 receptors)?
Answer: The Ki was < 1000 nM.

Question: Which Ki (TP receptor) does the source give for `O=C(O)c1cccc(Cc2cc(Cl)ccc2OCc2c(F)cc(F)cc2F)n1` [Example 6, Sodium 6-[(5-chloro-2-{[(2,4,6-trifluorophenyl)methyl]oxy}phenyl)methyl]-2-pyridinecarboxylate] here?
Answer: The Ki was < 1000 nM.

Question: And the Ki (EP1 receptors)?
Answer: The Ki was < 1000 nM.

Question: What does the source list for `O=C(O)c1cccc(Cc2cc(Cl)ccc2OCc2ccc(F)c(F)c2F)n1` [Example 7, Sodium 6-[(5-chloro-2-{[(2,3,4-trifluorophenyl)methyl]oxy}phenyl)methyl]-2-pyridinecarboxylate]?
Answer: Ki (TP receptor): < 1000 nM; Ki (EP1 receptors): < 1000 nM

Question: Which results are given for `O=C(O)c1cccc(Cc2cc(Cl)ccc2OCc2ccccc2F)n1` [Example 8, Sodium 6-[(5-chloro-2-{[(2-fluorophenyl)methyl]oxy}phenyl)methyl]-2-pyridinecarboxylate]?
Answer: Ki (EP3 receptors): > 10000 nM; Ki (TP receptor): < 1000 nM; Ki (EP1 receptors): < 1000 nM

Question: For `O=C(O)c1cccc(Cc2cc(Cl)ccc2OCc2ccc(Cl)cc2)n1` [Example 9, Sodium 6-[(5-chloro-2-{[(4-chlororophenyl)methyl]oxy}phenyl)methyl]-2-pyridinecarboxylate], which Ki (EP3 receptors) is on record?
Answer: Its Ki is > 10000 nM.

Question: What about the Ki (TP receptor) of the same compound?
Answer: The Ki was < 1000 nM.

Question: And the Ki (EP1 receptors)?
Answer: The Ki was < 1000 nM.

Question: What does the source list for `O=C(O)c1cccc(Cc2cc(Cl)ccc2OCc2ccccc2Cl)n1` [Example 13, Sodium 6-[(5-chloro-2-{[(2-chlorophenyl)methyl]oxy}phenyl)methyl]-2-pyridinecarboxylate]?
Answer: Ki (TP receptor): > 1000 nM; Ki (EP1 receptors): ≤ 31.6 nM

Question: What does the source list for `CC(C)Oc1ccc(Cl)cc1Cc1cccc(C(=O)O)n1` [Example 16, Sodium 6-({5-chloro-2-[(1-methylethyl)oxy]phenyl}methyl)-2-pyridinecarboxylate]?
Answer: Ki (EP3 receptors): > 10000 nM; Ki (EP1 receptors): < 1000 nM

Question: `O=C(O)c1cccc(Cc2cc(Cl)ccc2OCC2CC2)n1` [Example 17, Sodium 6-({5-chloro-2-[(cyclopropylmethyl)oxy]phenyl}methyl)-2-pyridinecarboxylate] was tested. Which Ki (EP3 receptors) did it give?
Answer: The Ki was > 10000 nM.

Question: What about the Ki (EP1 receptors) of the same compound?
Answer: The Ki was < 1000 nM.

Question: `O=C(O)c1cccc(Cc2cc(Cl)ccc2OCC2CCCCC2)n1` [Example 18, Sodium 6-({5-chloro-2-[(cyclohexylmethyl)oxy]phenyl}methyl)-2-pyridinecarboxylate] was tested. Which Ki (EP1 receptors) did it give?
Answer: Its Ki is ≤ 31.6 nM.

Question: For `O=C(O)c1cccc(Cc2cc(Cl)ccc2OC2CCCC2)n1` [Example 19, Sodium 6-{[5-chloro-2-(cyclopentyloxy)phenyl]methyl}-2-pyridinecarboxylate], which Ki (EP3 receptors) is on record?
Answer: The Ki was > 10000 nM.

Question: And the Ki (EP1 receptors)?
Answer: The Ki was < 1000 nM.

Question: With `CCC(CC)COc1ccc(Cl)cc1Cc1cccc(C(=O)O)n1` [Example 20, Sodium 6-({5-chloro-2-[(2-ethylbutyl)oxy]phenyl}methyl)-2-pyridinecarboxylate] as the compound, how does the Ki (EP1 receptors) read?
Answer: Its Ki is < 1000 nM.

Question: For `O=C(NS(=O)(=O)c1cc(Cl)cc(Cl)c1)c1cccc(Cc2cc(Cl)ccc2OCc2ccc(Cl)cc2F)n1` [Example 31], which Ki (EP3 receptors) is on record?
Answer: Its Ki is > 10000 nM.

Question: And the Ki (EP1 receptors)?
Answer: Its Ki is > 1000 nM.

Question: Which results are given for `COc1ccc(S(=O)(=O)NC(=O)c2cccc(Cc3cc(Cl)ccc3OCc3ccc(Cl)cc3F)n2)cc1` [Example 32, 6-[(5-Chloro-2-{[(4-chloro-2-fluorophenyl)methyl]oxy}-phenyl)methyl]-N-{[4-methoxyphenyl]suiphonyl}-2-pyridine-carboxamide]?
Answer: Ki (EP3 receptors): > 10000 nM; Ki (EP1 receptors): > 1000 nM

Question: What does the source list for `CC(=O)Nc1ccc(S(=O)(=O)NC(=O)c2cccc(Cc3cc(Cl)ccc3OCc3ccc(Cl)cc3F)n2)cc1` [Example 35, N-{[4-(Acetylamino)phenyl]-sulphonyl}-6-[(5-chloro-2-{[(4-chloro-2-fluorophenyl)methyl]-oxy}phenyl)methyl]-2-pyridine-carboxamide]?
Answer: Ki (EP3 receptors): > 10000 nM; Ki (EP1 receptors): < 1000 nM

Question: `O=C(O)c1cc(Cl)cc(Cc2cc(Cl)ccc2OCc2ccc(Cl)cc2F)n1` [Example 37, 4-Chloro-6-[(5-chloro-2-{[(4-chloro-2-fluorophenyl)-methyl]oxy}phenyl)methyl]-2-pyridinecarboxylic acid, sodium salt] was tested. Which Ki (EP1 receptors) did it give?
Answer: The Ki was ≤ 31.6 nM.

Question: `Cc1ccc(Cc2cc(Cl)ccc2OCc2ccc(Cl)cc2F)nc1C(=O)O` [Example 40, 6-[(5-Chloro-2-{[(4-chloro-2-fluorophenyl)methyl]oxy}-phenyl)methyl]-3-methyl-2-pyridinecarboxylic acid, sodium salt] was tested. Which Ki (EP3 receptors) did it give?
Answer: Its Ki is > 10000 nM.

Question: What about the Ki (EP1 receptors) of the same compound?
Answer: The Ki was > 1000 nM.
